Assay results taken from PubChem BioAssay (NCI).
Where “and” joins values, the source holds several entries; their conditions need not be identical. Equal entries are not always repeated.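 How tested: cells in 96-well plates exposed to compound for 48 hours at five concentrations. GI50 is the concentration that inhibits growth by half. TGI marks complete inhibition of growth.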

Assays:
Assay in all cases: NCI anticancer screen, dose series, 48 h
KM12 colon = tested on: KM12 colon
ACHN renal = tested on: ACHN renal
NCI-H460 lung = tested on: NCI-H460 lung
BT-549 breast = tested on: BT-549 breast
CAKI-1 renal = tested on: CAKI-1 renal
NCI-H226 lung = tested on: NCI-H226 lung
MALME-3M melanoma = tested on: MALME-3M melanoma
MOLT-4 leukemia = tested on: MOLT-4 leukemia
SW-620 colon = tested on: SW-620 colon
A549 NSCLC = tested on: A549 NSCLC

Compound	GI50 (KM12 colon)	TGI (KM12 colon)	GI50 (ACHN renal)	TGI (ACHN renal)	GI50 (NCI-H460 lung)	TGI (NCI-H460 lung)	GI50 (BT-549 breast)	TGI (BT-549 breast)	GI50 (CAKI-1 renal)	TGI (CAKI-1 renal)	GI50 (NCI-H226 lung)	TGI (NCI-H226 lung)	GI50 (MALME-3M melanoma)	TGI (MALME-3M melanoma)	GI50 (MOLT-4 leukemia)	TGI (MOLT-4 leukemia)	GI50 (SW-620 colon)	TGI (SW-620 colon)	GI50 (A549 NSCLC)	TGI (A549 NSCLC)
CCOC(=O)Nc1ccc(C(=O)/C=C/c2ccccc2)cc1	4.8 µM	17.6 µM	22.2 µM	52.3 µM	28.9 µM	> 100 µM	26.5 µM	67.8 µM	79 µM	> 100 µM	19.8 µM	68.6 µM	77.4 µM	> 100 µM	27.9 µM	> 100 µM	19.2 µM	> 100 µM	30.1 µM	> 100 µM
C[n+]1cc2cc3c(cc2c2ccccc21)OCO3	1.22 µM	10.1 µM	41.7 µM	> 100 µM	2.98 µM	14.5 µM	2.95 µM	16.3 µM	46.4 µM	> 100 µM	2.4 µM	32.2 µM	1.86 µM	5.16 µM	4.02 µM	> 100 µM	4.52 µM	> 100 µM	2.41 µM	14.4 µM
CC1=C/C(O)CC(=O)Cc2nc(co2)C(=O)N2CCC=C2C(=O)OC(C(C)C)C(C)/C=C\C(=O)NC/C=C\1 (stereo not given)	15.1 µM	30.3 µM and 25.3 µM	31.8 µM	> 100 µM and 29.7 µM	17.8 µM	58 µM and > 100 µM		> 47.9 µM and 51.6 µM	44.4 µM	> 84.1 µM and 70.1 µM	> 46.3 µM	> 100 µM	23.1 µM	> 65.9 µM and 25.2 µM	8.54 µM	> 32.6 µM and 53.5 µM	10.5 µM	35 µM and 37.7 µM	25.1 µM	> 100 µM
OCc1ncc(-c2ccccc2)s1	> 100 µM	> 100 µM	> 100 µM	> 100 µM	> 100 µM	> 100 µM	> 100 µM	> 100 µM	> 100 µM	> 100 µM	> 100 µM	> 100 µM	> 100 µM	> 100 µM	> 100 µM	> 100 µM	> 100 µM	> 100 µM	> 100 µM	> 100 µM
NC(=S)N/N=C/c1ccc(OC(=O)COc2ccccc2)cn1	3.16 µM	> 100 µM	3.65 µM	> 100 µM	5.04 µM	63.4 µM	26.4 µM	> 100 µM	4.01 µM	> 100 µM	20.3 µM	64 µM	11.2 µM	> 100 µM	2.53 µM	> 100 µM	5.02 µM	> 100 µM	30 µM	> 100 µM
CC(=O)OC1CC2(O)C(CCC3(C)C(c4ccc(=O)oc4)CCC32O)C2(C)CCC(OC3OC(CO)C(O)C(O)C3O)C=C12 (stereo not given)	0.0416 µM	0.2 µM	< 0.01 µM	0.036 µM	< 0.01 µM	0.0282 µM	0.0101 µM	0.0661 µM	0.0306 µM	0.131 µM	0.051 µM	0.176 µM	0.0245 µM	0.0593 µM	< 0.01 µM	0.015 µM	0.0275 µM	0.144 µM	< 0.01 µM	0.0278 µM
CC(C)C[C@H]1C(=O)N2CCC[C@H]2[C@]2(O)O[C@](NC(=O)[C@@H]3C=C4c5cccc6[nH]c(Br)c(c56)C[C@H]4N(C)C3)(C(C)C)C(=O)N12		> 100 µM		> 100 µM		> 100 µM		> 100 µM		> 100 µM		> 100 µM		> 100 µM		> 100 µM		> 100 µM		> 100 µM
C/C(=C1/N=C(c2ccccc2)OC1=O)c1ccccc1		> 100 µM		> 100 µM		> 100 µM		> 100 µM		> 100 µM		> 100 µM		> 100 µM		> 100 µM		> 100 µM		> 100 µM
CNC(C)[C@H]1CCC2C3CCC4C[C@@H](N(C)C(=O)c5ccccc5)CC[C@]4(C)C3CC[C@@]21C (stereo not given in full)	1.44 µM	5.83 µM	2.37 µM	9.59 µM	0.732 µM	2.33 µM	2.26 µM	8.35 µM	1.54 µM	5.13 µM	2.01 µM	12.9 µM	1.6 µM	3.99 µM	1.02 µM	3.46 µM	0.854 µM	2.9 µM	2.31 µM	7.29 µM
O=C1c2ccccc2C(=O)c2sc(Nc3ccc(Cl)cc3)nc21		5.03 µM		3.06 µM		11.7 µM	2.87 µM	11.7 µM		5.86 µM		15.3 µM		3.25 µM		3.75 µM		3.31 µM		24.6 µM
Nc1cc(N)cc(Cc2ccccc2)c1		> 100 µM		> 100 µM		> 100 µM		> 100 µM		> 100 µM		> 100 µM		> 100 µM		> 100 µM		> 100 µM		> 100 µM
